Data taken from US20120077813A1, “Imidazole Substituted Pyrimidines Useful in the Treatment of Glycogen Synthase Kinase-3 Related Disorders such as Alzheimer's Disease” (ASTRAZENECA AB, priority 2009, published 2012).
Counter-ions that a name gives are not always drawn.

Key:
recombinant human GSK3β = target: T1, recombinant human GSK3β (Homo sapiens, UniProt P49841); assay: ATP competition in scintillation proximity GSK3β assay; assay type: biochemical; settings: for Ki: mean value, Ki calculated with Km of ATP 20 μM; for Selectivity GSK3β vs CDK2: ratio of CDK2 Ki to GSK3β Ki
T1 construct: purchased Dundee University, UK
Protocol: Determination of ATP Competition in Scintillation Proximity GSK3β Assay.
The inhibition experiments were carried out in duplicate with 10 concentrations of the inhibitor in 384 well clear-bottom microtitre plates. A biotinylated peptide substrate (Biotin-Ala-Ala-Glu-Glu-Leu-Asp-Ser-Arg-Ala-Gly-Ser(PO3H2)-Pro-Gln-Leu (AstraZeneca, Lund)), was added at a final concentration of 1 mmol/L in an assay buffer (pH 7.0) containing 0.1 mU recombinant human GSK3β (Dundee University, UK), (1 nmol/L active enzyme), 10 mmol/L morpholinepropanesulfonic acid (MOPS), 0.3 mmol/L EDTA, 0.01% (v/v) β-mercaptoethanol, 0.003% (w/v) polyethylene 23 lauryl ether (Brij 35), 0.4% glycerol and 0.02 mg bovine serum albumine (BSA) and preincubated for 10 minutes. The reaction was initiated by the addition of 0.06 mCi [γ-33P]ATP (Amersham, UK) and unlabelled ATP in 30 mmol/L Mg(Ac)2 to a final concentration of […] ATP. The final assay volume was […]. Blank controls without peptide substrate were used. After incubation for 15 min at room temperature, the reaction was terminated by the addition of stop solution containing 1.3 mmol/L EDTA, 13 mmol/L ATP, 0.02% Triton™X-100 and 0.15 mg streptavidin coated SPA beads. After a 5 minutes centrifugation at 2000 rpm, the radioactivity was measured in a liquid scintillation counter (1450 MicroBeta Trilux, Perkin Elmer, Finland). The Km value of ATP for GSK3β, used to calculate the inhibition constants (Ki) of the various compounds, was 20 μM.

Cdk2/cyclin E = Cdk2/cyclin E (Homo sapiens, UniProt P24941); assay: ATP competition in scintillation proximity Cdk2 assay; assay type: biochemical; settings: mean value; Ki calculated with Km of ATP 0.5 μM
Protocol: Determination of ATP Competition in Scintillation Proximity Cdk2 Assay.
The competiton experiments were carried out in duplicate with 10 concentrations of the inhibitor in 96 well clear-bottom microtiter plates. Cdk2/cyclin E enzyme was added at a concentration corresponding to a 80 times dilution of the partially purified bacluloviral infected insect cell lysate in a buffer containing 50 mmol/L HEPES, 10 mmol/L MnCl2, 1 mmol/L dithiothreitol (DTT), 100 μmol/L NaF, 100 μmol/L sodium vanadate, 10 mmol/L sodium glycerophosphate, 5 μg/mL aprotinin, 2.5 μg/mL leupeptin and 100 μmol/L PMSF, pH 7.5. Blank controls without enzyme were used. The reaction was initiated by the addition of 1.25 μg GST-Rb, 0.15 μCi [γ-33P]ATP and unlabelled ATP at a final concentration of 0.1 μmol/L. The final assay volume was 50 μL. After incubation for 60 min at room temperature, each reaction was terminated by the addition of 150 μL stop solution containing 45 μL protein A coated SPA beads in 50 mmol/L HEPES, 3.28 mg antiglutathione-S-transferase, and 5.5 mmol/L EDTA and 35 μmol/L ATP. The plate was centrifuged at 2000 rpm for 5 min and the radioactivity was determined in a liquid scintillation counter (1450 MicroBeta Trilux, Perkin Elmer, Finland). The Km value of ATP for Cdk2 used to calculate the inhibition constants (Ki) of the various compounds, was 0.5 μM

[1] = CaCo-2 A to B permeability assay Alt 2 (pH 7.4); assay type: in vitro ADME; settings: human, Alt 2: apical to basolateral, pH 7.4, 10 μM, mean value
Protocol: (§1) CaCo-2 Cell Permeability Assay
(§2) CaCo-2 cells were seeded onto filter membrane at a density of 340500 cells/cm2 for 24 well plates (0.33 cm2/well). The cells were grown in culture medium consisting of Dulbecco's modified Eagle's medium with glucose and L-glutamine supplemented with 10% fetal bovine serum, 100 U/ml penicillin-G, and 100 μg/ml streptomycin and 1% (v/v) 100X non-essential amino acids. The culture medium was replaced every second day and the cells were maintained at 37° C., 95% relative humidity, and 5% CO2. Permeability studies were conducted with the monolayers cultured for 21-28 days with the cell passage numbers between 25 and 50.
Alt 2. the CaCo-2 A to B Permeability Assay Used in Examples 2-4, 7-8.
The CaCo-2 A to B assay was performed in the apical to basolateral direction (each in duplicates) at pH 7.4. HBSS containing 25 mM HEPES (pH 7.4) was used as transport medium. The drug solutions, typically 10 μM, were prepared in transport medium (1% DMSO). Studies of six compounds can be performed in one 24 well plate that generates one 96 deepwell analysis plate (maximum capacity 6 plates=36 compounds and 6 deep well plates). The CaCo-2 cell monolayers were washed once with HBSS for 10 minutes prior to start. Transport buffer, 800 μL, (HBSS, pH 7.4) is first dispensed to the basal side of the monolayer. The assay is then initiated by addition of 225 μL of each compound (10 μM) to the apical side. Samples are withdrawn directly (Donor 0) and at 60 min (Donor end and Receiver 60) post addition of test compound. 25 μL and 150 μL are withdrawn from the donor compartment and the receiver compartment, respectively. During washing-step and incubation with compounds the transwell plates are placed in a shaking incubator at 480 rpm and 37° C. The integrity of the epithelial cell monolayer is monitored by measuring the amount of radiolabelled [^14C]mannitol (low passive paracellular diffusion) in the donor compartment at time 0 min to 60 min. Luma Plate 96-well is used for analysis of [14C]mannitol. Compound recovery was assessed by calculating the sum of the cumulatively transported amount and the amount left in the donor side against the initial amount of drug. The samples were analysed online using liquid chromatography tandem mass spectrometry (LC/MS/MS).
(§3) The apparent permeability coefficient is calculated as follows: […]
where ΔQ/Δt is the total amount of substance transported into the receiver chamber per unit time, A is the surface area (cm^2), and C0 the starting donor concentration. The apparent permeability Papp is expressed in ×10-6 cm/sec.

[2] = CaCo-2 permeability assay Alt 1 (pH gradient 6.5/7.4); assay type: in vitro ADME; settings: human, Alt 1: apical to basolateral, pH 6.5 apically, pH 7.4 basolaterally, typically 10 μM, mean value
Protocol: as §1, §2
Alt 1. the CaCo-2 Permeability Assay Used in Examples 3, 5, 6 and Reference Example.
The CaCo-2 permeabilty assay were performed in the apical to basolateral directions under gradient pH-gradient conditions (pH 6.5 apically, pH 7.4 basolaterally). HBSS containing 25 mM HEPES (pH 7.4) and 25 mM MES (pH 6.5) was used as transport medium. Fully differentiated cell monolayers were washed with transport medium. The drug solutions, typically 10 μM, were prepared in transport medium, pH 6.5 (1% DMSO). The permeability experiment was started by adding 0.2 ml drug solutions on the apical side. The basolateral side contained 0.8 ml of transport medium, pH 7.4. Three inserts with cells and one without were assayed for each drug. Cells were kept in an incubator at 37° C. and shaking. 200 μl samples were taken at 45 and 90 min from the basolateral side. The same volume of transport buffer was added to the basolateral compartments after the first sampling. Compound recovery was assessed by calculating the sum of the cumulatively transported amount and the amount left in the donor side against the initial amount of drug. The samples were analysed online using liquid chromatography tandem mass spectrometry (LC/MS/MS). […] The samples of 25 μl were analysed by liquid scintillation.
as §3

T1 sequence (P49841 whole entry): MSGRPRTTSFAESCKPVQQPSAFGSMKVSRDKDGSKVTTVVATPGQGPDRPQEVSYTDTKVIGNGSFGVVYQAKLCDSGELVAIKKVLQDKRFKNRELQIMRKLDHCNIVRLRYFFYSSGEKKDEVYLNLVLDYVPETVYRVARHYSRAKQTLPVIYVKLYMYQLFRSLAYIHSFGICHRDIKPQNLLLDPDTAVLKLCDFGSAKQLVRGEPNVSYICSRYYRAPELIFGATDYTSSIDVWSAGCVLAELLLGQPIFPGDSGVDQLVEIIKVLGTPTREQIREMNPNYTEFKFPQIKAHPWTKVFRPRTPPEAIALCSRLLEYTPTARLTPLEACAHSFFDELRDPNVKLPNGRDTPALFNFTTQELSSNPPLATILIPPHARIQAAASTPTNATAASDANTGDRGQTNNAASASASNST

Cc1ncc(-c2nc(Nc3ccc(CN4CCOC[C@@H]4C)cc3F)ncc2F)n1C1CCOCC1 [Ex 3, 5-Fluoro-N-(2-fluoro-4-(((S)-3-methylmorpholino)methyl)phenyl)-4-(2-methyl-1-(tetrahydro-2H-pyran-4-yl)-1H-imidazol-5-yl)pyrimidin-2-amine hydrochloride]
Ki (recombinant human GSK3β): 30 nM | Selectivity GSK3β vs CDK2 (recombinant human GSK3β): 31 | Ki (Cdk2/cyclin E): 940 nM | Papp A→B at 60 min, 10 µM [1]: 56 ×10⁻⁶ cm/s

Cc1ncc(-c2nc(Nc3cc(F)c(CN4[C@@H](C)COC[C@@H]4C)cc3F)ncc2F)n1C1CCOCC1 [Ex 8, N-(4-(((3S,5S)-3,5-Dimethylmorpholino)methyl)-2,5-difluorophenyl)-5-fluoro-4-(2-methyl-1-(tetrahydro-2H-pyran-4-yl)-1H-imidazol-5-yl)pyrimidin-2-amine]
Ki (recombinant human GSK3β): 7.7 nM | Selectivity GSK3β vs CDK2 (recombinant human GSK3β): 29 | Ki (Cdk2/cyclin E): 222 nM | Papp A→B at 60 min, 10 µM [1]: 40 ×10⁻⁶ cm/s

Cc1ncc(-c2nc(Nc3cc(F)c(CN4CCOC[C@@H]4C)cc3F)ncc2F)n1C1CCOCC1 [Ex 7, N-(2,5-Difluoro-4-(((S)-3-methylmorpholino)methyl)phenyl)-5-fluoro-4-(2-methyl-1-(tetrahydro-2H-pyran-4-yl)-1H-imidazol-5-yl)pyrimidin-2-amine]
Ki (recombinant human GSK3β): 11 nM | Selectivity GSK3β vs CDK2 (recombinant human GSK3β): 16 | Ki (Cdk2/cyclin E): 175 nM | Papp A→B at 60 min, 10 µM [1]: 44 ×10⁻⁶ cm/s

Cc1ncc(-c2nc(Nc3ccc(CN4CCOC[C@H]4C)cc3F)ncc2F)n1C1CCOCC1 [Ex 2, 5-Fluoro-N-(2-fluoro-4-(((R)-3-methylmorpholino)methyl)phenyl)-4-(2-methyl-1-(tetrahydro-2H-pyran-4-yl)-1H-imidazol-5-yl)pyrimidin-2-amine hydrochloride]
Ki (recombinant human GSK3β): 5 nM | Selectivity GSK3β vs CDK2 (recombinant human GSK3β): 58 | Ki (Cdk2/cyclin E): 290 nM | Papp A→B at 60 min, 10 µM [1]: 39 ×10⁻⁶ cm/s

Cc1ncc(-c2nc(Nc3ccc(CN4[C@@H](C)COC[C@@H]4C)cc3F)ncc2F)n1C1CCOCC1 [Ex 4, N-(4-(((3S,5S)-3,5-Dimethylmorpholino)methyl)-2-fluorophenyl)-5-fluoro-4-(2-methyl-1-(tetrahydro-2H-pyran-4-yl)-1H-imidazol-5-yl)pyrimidin-2-amine hydrochloride]
Ki (recombinant human GSK3β): 11 nM | Selectivity GSK3β vs CDK2 (recombinant human GSK3β): 29 | Ki (Cdk2/cyclin E): 318 nM | Papp A→B at 60 min, 10 µM [1]: 44 ×10⁻⁶ cm/s

Cc1ncc(-c2nc(Nc3ccc(CN4CCOCC4)cc3F)ncc2F)n1C1CCOCC1 [Ex 1, 5-Fluoro-N-(2-fluoro-4-(morpholinomethyl)phenyl)-4-(2-methyl-1-(tetrahydro-2H-pyran-4-yl)-1H-imidazol-5-yl)pyrimidin-2-amine]
Ki (recombinant human GSK3β): 15 nM | Selectivity GSK3β vs CDK2 (recombinant human GSK3β): 20 | Ki (Cdk2/cyclin E): 308 nM | Papp A→B at 90 min, 10 µM [2]: 36 ×10⁻⁶ cm/s

Cc1ncc(-c2nc(Nc3cc(F)c(CN4CCOCC4)cc3F)ncc2F)n1C1CCOCC1 [Ex 6, N-(2,5-Difluoro-4-(morpholinomethyl)phenyl)-5-fluoro-4-(2-methyl-1-(tetrahydro-2H-pyran-4-yl)-1H-imidazol-5-yl)pyrimidin-2-amine hydrochloride]
Ki (recombinant human GSK3β): 4.9 nM | Selectivity GSK3β vs CDK2 (recombinant human GSK3β; hydrochloride): 27 | Ki (Cdk2/cyclin E): 133 nM

Cc1ncc(-c2nc(Nc3cc(F)c(CN4CCOCC4)cc3F)ncc2F)n1C1CCOCC1 (as salt: succinate) [Ex 5, N-(2,5-Difluoro-4-(morpholinomethyl)phenyl)-5-fluoro-4-(2-methyl-1-(tetrahydro-2H-pyran-4-yl)-1H-imidazol-5-yl)pyrimidin-2-amine]
melting point: 177 °C

Cc1ncc(-c2nc(Nc3cc(F)c(CN4CCOCC4)cc3F)ncc2F)n1C1CCOCC1 [Ex 5, N-(2,5-Difluoro-4-(morpholinomethyl)phenyl)-5-fluoro-4-(2-methyl-1-(tetrahydro-2H-pyran-4-yl)-1H-imidazol-5-yl)pyrimidin-2-amine]
Ki (recombinant human GSK3β): 4.9 nM | Selectivity GSK3β vs CDK2 (recombinant human GSK3β): 26 | Ki (Cdk2/cyclin E): 127 nM | Papp A→B at 90 min, 10 µM [2]: 45 ×10⁻⁶ cm/s

Cc1ncc(-c2nc(Nc3ccc(CN4CCOCC4)cc3)ncc2F)n1C1CCOCC1 [Reference example, 5-fluoro-4-(2-methyl-1-(tetrahydro-2H-pyran-4-yl)-1H-imidazol-5-yl)-N-(4-(morpholinomethyl)phenyl)pyrimidin-2-amine, reference compound]
Ki (recombinant human GSK3β): 8.1 nM | Selectivity GSK3β vs CDK2 (recombinant human GSK3β): 14 | Ki (Cdk2/cyclin E): 110 nM | Papp A→B at 90 min, 10 µM [2]: 26 ×10⁻⁶ cm/s
